Assay: passive permeability, PAMPA, ADME assay (AID 1508612)
Conditions: pH 7.4, 30.0 min, 50.0 µM

| SMILES | Papp [×10⁻⁶ cm/s] |
| --- | --- |
| O=C(CNC12CC3CC(CC(C3)C1)C2)c1ccc(Cl)cc1 | 635 |
| Cc1ccc(-c2ccc(CNc3nc(-c4ccccc4C(C)C)ncc3C)cc2)cn1 | 824 |
| CN(C)c1ccc(-c2csc(N3CCC(C(N)=O)CC3)n2)cc1 | 3.06 |
| c1ccc(C2=Nn3c(nnc3-c3ccncc3)SC2)cc1 | 195 |
| O=C1Cc2cc(C(=O)c3ccco3)ccc2N1 | 35.2 |
| Cc1ccnc(C)c1C(=O)Nc1cccc([S+](=O)([O-])N(C)C)c1 | 98.5 |
| CN(Cc1ccccc1)C(=O)c1ccc(S(=O)(=O)Nc2ccccc2)cc1 | 288 |
| CCOC(=O)c1ccc(-c2ccc3ncnc(NCCc4cnc[nH]4)c3c2)o1 | > 1000 |
| Cc1cccc(C(=O)N2CCc3cc(-c4nc(NC(=O)Cc5ccc6c(c5)OCO6)sc4C)ccc32)c1 | 59 |
| OCCn1cc(-c2cnc3nnn(Cc4ccc5ncccc5c4)c3n2)cn1 | 97.5 |
| CC(C)CC(=O)Nc1n[nH]c2c1CN(C(=O)C1CCN(C)CC1)C2(C)C | < 1 |
| CCCN1CNc2c(c(=O)[nH]c(=S)n2CCc2ccc(OC)c(OC)c2)C1 | 138 |
| Cc1ccc(NS(=O)(=O)c2c(C)[nH]c(C)c2C(=O)N2CCCC2)cc1Cl | 387 |
| O=C(Nc1ccc(S(=O)(=O)Nc2nccs2)cc1)c1ccncc1 | 1.4 |
| COc1ccnc(NC(=S)N2CCN(c3ccc(Cl)c(Cl)c3)CC2)c1 | 601 |
| CN(C(=O)CSc1nc2ccc(NC(=O)c3ccc(F)cc3)cc2s1)c1ccccc1 | 741 |
| CCOc1ccc(CCNC(=O)c2cc3ccccc3n2CCN2CCOCC2)cc1OCC | > 1000 |
| COc1ccc2[nH]c(=O)c(-c3noc(-c4ccc(F)cc4)n3)cc2c1 | 63 |
| CNS(=O)(=O)c1cc(-c2nn3c(C)nnc3c3ccccc23)ccc1C | 146 |
| O=C(O)c1cn(C2CC2)c2cc(N3C[C@@H]4C[C@H]3CN4)c(F)cc2c1=O | < 1 |
| CCc1ccc(CNc2ccc3c(c2)ncn3C(C)(C)C)cc1 | > 1000 |
| COc1cccc(NS(=O)(=O)c2ccc(NCc3cccc(OC)c3O)cc2)c1 | 603 |
| CC(=O)N1CCC2(CCCN(c3ccc(-c4ccccc4)cc3)C2)CC1 | > 1000 |
| Cc1cccc(-c2noc([C@@H]3Cc4nc[nH]c4CN3C(=O)CC(C)(C)CC(=O)O)n2)c1 | 34.2 |
| Cc1cc(CNC(=O)c2ccc3c(c2)n(CC2CC2)c(=O)n3C2CCCCC2)on1 | 964 |
| CCc1ccc(S(=O)(=O)Nc2cnccc2C(=O)Nc2nc(-c3ccccc3)cs2)cc1 | 300 |
| CC(C)CCNC(=O)[C@H](CC(C)C)NC(=O)[C@H]1O[C@@H]1C(=O)O | < 1 |

| SMILES | Papp [×10⁻⁶ cm/s] |
| --- | --- |
| COc1ccc(C2Nc3ccccc3C(=O)N2Cc2ccco2)cc1COc1ccc(NC(C)=O)cc1 (stereo not given) | 329 |
| Cc1ccc(C(=O)Nc2nc3nc(C)cc(=O)n3[nH]2)cc1 | < 1 |
| CCOc1ccc(CCNC(=O)c2cc3sccc3n2Cc2ccccn2)cc1OCC | > 1000 |
| Cn1cnc(S(=O)(=O)Nc2cnccc2C(=O)Nc2nc(-c3ccccc3)cs2)c1 | 1.1 |
| CC(=O)c1c(C)[nH]c(C(=O)Nc2ccc(OCCCN(C)C)c(S(=O)(=O)Nc3ccc(Br)cc3)c2)c1C | 74.7 |
| O=C(O)c1ccccc1C(=O)Nc1ccc(-c2ccccc2)cc1 | 3.49 |
| Cc1c(O)ccc2c1OC(C)(C)CC2 | 540 |
| CS(=O)(=O)CCNCc1ccc(-c2ccc3ncnc(Nc4ccc(OCc5cccc(F)c5)c(Cl)c4)c3c2)o1 | < 1 |
| Cn1cc(Br)c(C2N=C(Nc3nc4ccccc4o3)NC3=C2C(=O)CCC3)n1 (stereo not given) | > 1000 |
| COc1ccc(-n2nc(C3CCCN(C(=O)Cc4ccccn4)C3)[nH]c2=O)cc1 (stereo not given) | 106 |
| CCn1c(SCc2ccc(C#N)cc2)nnc1-c1cccc(Cl)c1 | 924 |
| COc1ccc(-c2csc(NC(=O)c3ccccc3NS(=O)(=O)c3ccc(C)cc3)n2)cc1 | 7.7 |
| CC(=O)N1CCc2c(sc3c2c(=O)n(-c2ccccc2)c(=O)n3Cc2cccc(C(F)(F)F)c2)C1 | > 1000 |
| COc1cc(Cl)c(C)cc1Nc1c2c(nc3ccccc13)CCC2 | > 1000 |
| CCOC(=O)C1CCN(c2nc(-c3ccc(Br)cc3)cs2)CC1 | 120 |
| Clc1cccc(Nc2nc(-c3ccncc3)nc3ccccc23)c1 | 250 |
| Cc1ccc(N2CCN(c3cnn(-c4nc5ccccc5s4)c(=O)c3Cl)CC2C)cc1 (stereo not given) | 317 |
| O=C(c1ccc2c(c1)ncn2-c1ccccc1)N1CCCCC1 | 472 |
| CCN(CCCOc1ccc2c(Nc3cc(CC(=O)Nc4cccc(F)c4)[nH]n3)ncnc2c1)CCOP(=O)(O)O | < 1 |
| CCOC(=O)C1CCN(C(=O)C(C)(C)NC(=O)Nc2ccc(-c3ccccc3)cc2)CC1 | 486 |
| COC(=O)c1ccc(NC(=O)c2nc3ccccc3n(C)c2=O)cc1 | 350 |
| COc1ccc(NC(=O)c2[nH]c(C)c(C(C)=O)c2C)cc1S(=O)(=O)Nc1ccc(C#N)cc1 | 35.7 |
| O=C(Nc1nnc(-c2ccco2)o1)c1ccc(Cl)cc1 | 24.2 |
| Nc1c(S(=O)(=O)c2cccs2)c2nc3ccccc3nc2n1Cc1ccccc1 | > 1000 |
| COc1ccc(-c2[nH]nc3ncc(-c4ccc(CO)cc4)nc23)cc1F | 353 |
| Cc1cnc(-c2ccccc2C2COC2)nc1NCc1ccc(-c2cccnc2)cc1 | 2.87 |
| COc1ccc(C2c3c(oc4ccc(C)cc4c3=O)C(=O)N2CCCN2CCOCC2)cc1OC (stereo not given) | 403 |

| SMILES | Papp [×10⁻⁶ cm/s] |
| --- | --- |
| Cc1ccc(S(=O)(=O)Nc2cnccc2C(=O)Nc2nc(-c3cccc(C)c3)cs2)cc1 | 729 |
| CC(C)(C#N)c1ccc(N2C(=O)OCc3cnc4ccc(-c5cnc6ccccc6c5)cc4c32)cc1 | 47.5 |
| COc1ccc(CNc2ccc(S(=O)(=O)Nc3nccs3)cc2)cc1O | 19.3 |
| Cc1ccc(S(=O)(=O)Nc2cnccc2C(=O)Nc2ccc(-n3cncn3)cc2)cc1 | 8.29 |
| O=C1NCc2ccc(-c3cc4c(ccn4Cc4cccnc4)c(C4=CCOCC4)n3)cc21 | 175 |
| O=C(Nc1ccccc1O)c1ccc(NC(=O)C2CC2)cc1 | 117 |
| COC(=O)[C@H](Cc1ccc(O[S+](=O)([O-])c2cccc3cnccc23)cc1)N[S+](=O)([O-])c1ccc2cnccc2c1 | > 1000 |
| COc1cccc(CNc2ccc(S(=O)(=O)Nc3nc(C)cs3)cc2)c1O | 128 |
| CCn1c(C(=O)N2CCCC(C(=O)NCCc3ccc(C)cc3)C2)cc2sccc21 (stereo not given) | > 1000 |
| CCN1CCc2c(sc(NC(=O)Nc3ccc(Cl)c(Cl)c3)c2C(N)=O)C1 | 435 |
| Cc1cc(-c2nnc3n2CCCCC3)c(C)n1-c1ccncc1 | 24.5 |
| CNC(=O)C1CCN(c2nc(-c3ccc(Br)cc3)cs2)CC1 | 736 |
| CCOC(=O)C1CCN(C(=O)C(C)(C)NC(=O)Nc2ccc(Cl)cc2Cl)CC1 | 725 |
| Cc1ccc(-c2[nH]n3c(=O)c4c(nc3c2C)CCCC4)cc1 | 506 |
| COc1ccc(-c2ccc3ncc(Nc4ccncc4)n3n2)cc1OC | 763 |
| O=C(Nc1ccc2oc(-c3cccnc3)nc2c1)c1ccc(-c2cccc(Cl)c2)o1 | 310 |
| Cc1cccc(-n2cnc3cc(C(=O)N4CCCCC4)ccc32)c1 | 912 |
| COc1ccc(NC(=O)c2[nH]c(C)c(C(C)=O)c2C)cc1S(=O)(=O)N(C)C | 329 |
| CCn1nc(C2CCN(C(=O)CCO)CC2)nc1-c1cnc(N)c(-c2nnc(C(C)(C)C)o2)n1 | 188 |
| COc1cccc(Cn2c(=O)n(-c3cccc(Cl)c3C)c(=O)c3c4c(sc32)CN(C(C)=O)CC4)c1 | > 1000 |
| CN1CCN(c2ccc(Nc3nc(-c4ccncc4)nc4ccccc34)cc2F)CC1 | > 1000 |
| Cc1cc(-c2nnc3n2CCCCC3)c(C)n1-c1cccc(C(F)(F)F)c1 | > 1000 |
| NC1CCC(Nc2nc(Nc3ccc(C(=O)N4CCCCC4)cc3)c3ncn(-c4cccc(F)c4)c3n2)CC1 (stereo not given) | 21.8 |
| O=C(Nc1ccc(N2CCN(C(=O)c3ccccc3F)CC2)cc1)c1cncc(Br)c1 | > 1000 |
| O=C(NC1CC1)c1nc(-c2cccnc2)c2ccccn12 | 652 |
| Cc1ccc(S(=O)(=O)Nc2cnccc2C(=O)Nc2ccccc2)cc1 | 123 |
| COc1ccc(NC(=O)c2[nH]c(C)cc2C)cc1S(=O)(=O)Nc1ccc(Br)cc1 | > 1000 |

| SMILES | Papp [×10⁻⁶ cm/s] |
| --- | --- |
| CCN1CCC(N(Cc2ccc3c(c2)OCO3)C(=O)Nc2cc(Cl)ccc2C(=O)OC)CC1 | > 1000 |
| NC(=O)C1CCN(c2nc(-c3cccc4sc5ccccc5c34)cs2)CC1 | 364 |
| c1c[nH]c(C2CCN(c3ncc(-c4ccc5c(c4)OCCCO5)s3)CC2)n1 | > 1000 |
| CS(=O)(=O)c1ccc(-c2csc(N3CCC(C(N)=O)CC3)n2)cc1 | 74 |
| O=C(Nc1nc(-c2ccccc2)cs1)c1ccncc1NS(=O)(=O)c1ccc2c(c1)CCC2 | > 1000 |
| O=C1CCCC2=C1C(c1[nH]ncc1Cl)N=C(Nc1nc3ccc(F)cc3o1)N2 (stereo not given) | 653 |
| c1ccc2c(Nc3nccs3)nc(-c3ccncc3)nc2c1 | 150 |
| Nc1nc2c(s1)C(c1c(Cl)cccc1Cl)CC(=O)N2 (stereo not given) | 5.54 |
| COc1ccccc1NC(=O)C1=C(C)Nc2c(C(=O)Nc3cccc(C)c3)cnn2C1c1ccccc1Cl (stereo not given) | 751 |
| c1ccc2c(Nc3ccc4nc[nH]c4c3)nc(-c3ccncc3)nc2c1 | 16.7 |
| OCc1ccc(-c2nn(Cc3ccccc3)c3ccccc23)o1 | 842 |
| O=[S+]([O-])(Nc1ccc(C2CCNCC2)cc1)c1ccc(NCc2ccc(Br)cc2O)cc1 | 6.3 |
| OC1(c2ccc(Cl)cc2)CCN(Cc2c[nH]c3ccccc23)CC1 | > 1000 |
| Cc1ccc(S(=O)(=O)Nc2cnccc2C(=O)Nc2nc(C3CCC3)cs2)cc1 | 497 |
| O=C(NCc1cccc(C(F)(F)F)c1)c1ccc(CN2CCCCC2)cc1 | > 1000 |
| CC(=O)N1CCN(c2nc(-c3ccc(Br)cc3)cs2)CC1 | 995 |
| Oc1cccc(-c2nc(N3CCOCC3)c3oc4ncccc4c3n2)c1 | 537 |
| CC(=O)c1c(C)[nH]c(C(=O)Nc2cccc([S+](=O)([O-])N3CCC(F)(F)CC3)c2)c1C | > 1000 |
| CCCCN(CC)CCCNC(=O)c1ccc2c(c1)N(Cc1ccc(C)cc1)C(=O)c1ccccc1S2 | 827 |
| O=C(Nc1ccc(S(=O)(=O)Nc2nccs2)cc1)c1ccnc2ccccc12 | 2.3 |
| C/C=C1/CN2CC[C@@]34c5ccccc5N(C)[C@@H]3[C@@H]2C[C@@H]1[C@H]4C(=O)OC | 895 |
| CC1(COc2ccc3c(c2)ncn3-c2ccc3cccc(N4CCC(N)CC4)c3n2)COC1 | 25.2 |
| CCc1cccc(NC(=O)c2c(C)oc3nc(C)nc(N4CCCC4)c23)c1 | > 1000 |
| CCS(=O)(=O)c1nc(-c2ccc(Cl)cc2)cc(C(F)(F)F)n1 | 975 |

— PubChem BioAssay AID1508612
